Measurements published in patent US10725042B2, “Methods of diagnosing and treating cancer” (Case Western Reserve University, priority 2012, dated 2020).

How the values were obtained:
[1] = test system: uracil in DNA of UDG+/+ cells; assay: Uracil in DNA by HPLC/MS/MS, UDG+/+ cells; type: cell-based, human; conditions: pemetrexed 10 μM, 6-72 hr
Protocol: UDG^−/− and UDG^+/+ cells were exposed to pemetrexed (10 μM) or 5-fluorouracil (10 μM) for 6, 24, 48 and 72 hrs. At indicated time points, cells were harvested and genomic DNA was extracted by phenol/chloroform. Forty μg of DNA were incubated with 10 U of purified UDG (New England Biolabs) in 60 μL of reaction buffer at 37° C. for 2 hrs. The reaction products were dried at 35° C. in a Turbovap under a stream of nitrogen and reconstituted in 150 μL 90% acetonitrile. The analyte was retained by an Atlantis Hilis Silica analytical column (2.1×100 mm, 3.5 μM) and eluted isocratically by a mixture of 90% acetonitrile and 10% 2.0 mM ammonium formate at a flow rate of 0.2 ml/min. The detection was done by an API 3200 MS/MS mass spectrometer.

H460 cells = assay: Clonogenic survival assay, H460 cells; type: cell-based; conditions: Homo sapiens, NCI-H460, read-out: IC50 values for pemetrexed
Protocol: Tumor cells (500-2000/dish) were plated and treated with pemetrexed (0-400 nM), 5-fluorouracil (0-20 μM), temozolomide (0-1500 μM), or cisplatin (0-40 μM). After 7 days, surviving colonies were stained with methylene blue for 30 min at room temperature and the colonies containing more than 50 cells were counted to generate survival curves.

[2] = test system: A549 lung cancer xenografts; assay: A549 xenograft tumors in nude mice; type: in vivo; conditions: A549 tumours; pemetrexed 150 mg/kg, MX 4 mg/kg, i.p. daily for 5 days
Protocol: H460 or A549 tumor cells (5×10^6) were injected into bilateral flanks of female athymic NCr (nu/nu) mice (6 weeks old). When the tumor volumes reached 100-150 mm3, mice were divided into control and treatment groups (6-9 mice/group). Nude mice carrying tumors were treated with pemetrexed (150 mg/kg) alone, MX (4 mg/kg) alone or the combination of the two agents, by daily intraperitonial injection (i.p.) for 5 consecutive days. Tumor measurements were taken every 2 days. Tumor responses were quantified by tumor volume.

[3] = test system: AP sites in DNA of UDG−/− cells; assay: AP site assay (ARP), UDG−/− cells; type: cell-based, human; conditions: pemetrexed 0-400 nM, 24 hrs
Protocol: The number of AP sites was measured using ARP (aldehyde reactive probe) reagent. The assay was performed as previously described. Briefly, cells (2×10^6) were collected after drug treatment and DNA was extracted. DNA (10 μg) was incubated with 15 μl of 1 mM ARP (Dojindo Laboratories, Kumamoto, Japan), and then precipitated and washed with ice-cold ethanol. The ARP-labeled DNA was then heat-denatured at 100° C. for 5 min, quickly chilled on ice and mixed with an equal volume of 2 M ammonium acetate. The DNA was then immobilized on a BA-S 85 nitrocellulose membrane (Schleicher and Schuell, Dassel, Germany) using a minifold II vacuum filter device (Schleicher and Schuell, Dassel, Germany). The membrane was incubated with 0.25% BSA-PBS containing streptavidin-conjugated horseradish peroxidase (BioGenex, SanRamon, Calif.) at room temperature for 40 min with gentle shaking. ARP-labeled AP sites were visualized by chemiluminescence (Amersham Corp, Piscataway, N.J.) followed by quantitative densitometry using NIH Image J software.

A549 siUNG cells = assay: Colony survival assay, A549 siUNG cells; type: cell-based, human
Protocol: For cells in suspension, colony survival was determined by crystal violet staining of colonies formed after 10-day exposure of 5×10^3 cells to pemetrexed in soft agar. For adherent cells, colony survival was determined by methylene blue staining of colonies formed after 10-day exposure of 100 cells to pemetrexed in 6-well culture dishes. Only colonies containing ≥50 cells were counted. Data points represent percent of colonies relative to untreated control averaged over 3 experiments.
UNG directed shRNA and siRNA plasmids were purchased from Origene. Transfection was carried out according to manufacturer specifications. Stably transfected clones (shRNA) were selected with puromycin with subsequent expansion of a well-isolated colony of cells.

UDG+/+ cells = assay: Replication foci stained with CldU and IdU, UDG+/+ cells; type: cell-based, human; conditions: pemetrexed 25 nM, n=10 cells
Protocol: DNA replication sites were visualized by incorporation of chlorodeoxyuridine (CldU) and iododeoxyuridine (IdU) into DNA. UDG^−/− and UDG^+/+ cells were labeled with 100 μM CldU (ICN, Irvine, Calif.) or IdU (Sigma Chemical Co., St. Louis, Mo.) for 45 min at different time intervals. Cells were washed with PBS, fixed with cold 70% ethanol, and stored at 4° C. For antibody staining, the ethanol was removed, and 100% methanol was added for 5 min. Cells were washed twice with PBS and incubated with 1.5 M HCl for 30 min to denature the DNA. Cells were washed with PBS, permeabilized with 0.5% Tween 20 in PBS for 5 min, and then incubated in 5% BSA (Sigma Chemical Co.) and in PBS for 20 min to reduce nonspecific binding. Primary antibodies CldU (rat anti-BrdU; Accurate Chemical and Science Co., Westbury, N.Y.) and IdU (mouse anti-BrdU; BD Biosciences) were diluted in 1% BSA buffer, added to the slides, and incubated in a humid environment for 2 hrs. Slides were washed with PBS-Tween 20 and then in a high-salt buffer (200 mM NaCl, 0.2% Tween 20, and 0.2% NP-40 in PBS) for 15 min. The samples were incubated with secondary antibodies for 1 h. Finally, slides were washed with PBSTween 20, mounted with Vectashield antifade mounting medium (Vector Laboratories, Inc., Burlingame, Calif.), and stored at 4° C. […] Fluorescence density of CldU or IdU was quantified by NIH image J software.

DLD1/UDG+/+ cells = assay: Cell cycle analysis, UDG+/+ cells; type: cell-based, human; conditions: pemetrexed 25 nM
Protocol: For cell cycle analysis, 10^6 cells (DLD1/UDG^+/+ and DLD1/UDG^−/−) were plated in 100-mm tissue culture dishes and exposed to pemetrexed (25 nM). After 6, 24 and 72 h of culture, cells were fixed with 80% methanol and washed with ice-cold 1% BSA/PBS. DNA was stained with 20 μg/mL propidium iodide (Sigma-Aldrich) and 2.5 μg/mL of DNase-free RNase A (Roche). The DNA fluorescence of propidium iodide-stained cells was measured with an Elite ESP flow cytometer/cell sorter (Coulter, Miami, Fla.).

DLD1 UDG+/+ cells = assay: Colony survival (clonogenic) assay, UDG+/+ cells; type: cell-based; conditions: Homo sapiens, DLD-1, interpolated from dose-response survival curves, read-out: IC50 value for pemetrexed

## Nc1nc2[nH]cc(CCc3ccc(C(=O)N[C@@H](CCC(=O)O)C(=O)O)cc3)c2c(=O)[nH]1 [pemetrexed]
[1]
  uracil detected in DNA: very low
H460 cells
  IC50: 110 nM
[2]
  antitumour activity: moderately sensitive
[3]
  AP sites in DNA: lack of detectable AP sites
A549 siUNG cells; A549 siUNG vs parental
  sensitivity of A549 siRNA cells compared to parental cells: 7 fold
A549 siUNG cells; Homo sapiens, A549 siUNG, colony survival, read-out: pemetrexed IC50
  IC50: 60.5 nM
UDG+/+ cells; 6-hr sample
  ratio of IdU to CldU (fluorescence density): 0.7±0.13
UDG+/+ cells; 18-hr sample
  ratio of IdU to CldU (fluorescence density): 0.9±0.31
DLD1/UDG+/+ cells; 24 hr (untreated 17%)
  cells transiently arrested in S-phase: 21%
DLD1/UDG+/+ cells; 72 hr
  cells in the subG1 compartment: 6%
DLD1 UDG+/+ cells
  IC50: 210 nM
